The NIST ThermoML archive (doi:10.1016/j.jct.2012.08.010)

Assay: refractive index (Na D-line) (dimensionless); φn = volume fraction of the nth substance listed
Conditions: 101 kPa, Liquid, Standard Abbe refractometry

C=C[Si]1(C)O[Si](C)(C=C)O[Si](C)(C=C)O[Si](C)(C=C)O1 (stereo not given) [2,4,6,8-tetramethyl-2,4,6,8-tetravinylcycloterasiloxane] + Cc1ccccc1C
Conditions | refractive index
288.15 K, φ1 = 0.1323 | 1.49868
288.15 K, φ1 = 0.2522 | 1.49036
288.15 K, φ1 = 0.3383 | 1.4844
288.15 K, φ1 = 0.4201 | 1.47866
288.15 K, φ1 = 0.4909 | 1.47364
288.15 K, φ1 = 0.5559 | 1.46898
288.15 K, φ1 = 0.6028 | 1.4657
288.15 K, φ1 = 0.6571 | 1.46179
288.15 K, φ1 = 0.7017 | 1.45858
288.15 K, φ1 = 0.7422 | 1.4556
288.15 K, φ1 = 0.7787 | 1.45298
288.15 K, φ1 = 0.8113 | 1.45065
288.15 K, φ1 = 0.842 | 1.44839
288.15 K, φ1 = 0.8679 | 1.44648
288.15 K, φ1 = 0.8958 | 1.44445
288.15 K, φ1 = 0.9198 | 1.44269
288.15 K, φ1 = 0.942 | 1.44102
288.15 K, φ1 = 0.9794 | 1.43827
288.15 K, φ1 = 1 | 1.43674
298.15 K, φ1 = 0.1324 | 1.49359
298.15 K, φ1 = 0.2524 | 1.48535
298.15 K, φ1 = 0.3385 | 1.47939
298.15 K, φ1 = 0.4203 | 1.4737
298.15 K, φ1 = 0.4911 | 1.46872
298.15 K, φ1 = 0.5561 | 1.46412
298.15 K, φ1 = 0.603 | 1.46081
298.15 K, φ1 = 0.6573 | 1.45693
298.15 K, φ1 = 0.7019 | 1.45375
298.15 K, φ1 = 0.7423 | 1.45081
298.15 K, φ1 = 0.7788 | 1.44819
298.15 K, φ1 = 0.8114 | 1.44585
298.15 K, φ1 = 0.8421 | 1.4436
298.15 K, φ1 = 0.868 | 1.44172
298.15 K, φ1 = 0.8958 | 1.43977
298.15 K, φ1 = 0.9199 | 1.43795
298.15 K, φ1 = 0.9421 | 1.4363
298.15 K, φ1 = 0.9794 | 1.43354
298.15 K, φ1 = 1 | 1.43202
308.15 K, φ1 = 0.1325 | 1.48836
308.15 K, φ1 = 0.2526 | 1.48017
308.15 K, φ1 = 0.3387 | 1.47425
308.15 K, φ1 = 0.4205 | 1.46859
308.15 K, φ1 = 0.4913 | 1.46366
308.15 K, φ1 = 0.5563 | 1.45909
308.15 K, φ1 = 0.6032 | 1.45581
308.15 K, φ1 = 0.6575 | 1.45196
308.15 K, φ1 = 0.7021 | 1.44881
308.15 K, φ1 = 0.7425 | 1.4459
308.15 K, φ1 = 0.779 | 1.44332
308.15 K, φ1 = 0.8116 | 1.441
308.15 K, φ1 = 0.8422 | 1.43878
308.15 K, φ1 = 0.8681 | 1.43691
308.15 K, φ1 = 0.8959 | 1.43489
308.15 K, φ1 = 0.9199 | 1.43317
308.15 K, φ1 = 0.9421 | 1.43154
308.15 K, φ1 = 0.9794 | 1.42881
308.15 K, φ1 = 1 | 1.4273
318.15 K, φ1 = 0.1326 | 1.48315
318.15 K, φ1 = 0.2527 | 1.47503
318.15 K, φ1 = 0.3389 | 1.46915
318.15 K, φ1 = 0.4207 | 1.46354
318.15 K, φ1 = 0.4915 | 1.45862
318.15 K, φ1 = 0.5565 | 1.45412
318.15 K, φ1 = 0.6034 | 1.45086
318.15 K, φ1 = 0.6577 | 1.44704
318.15 K, φ1 = 0.7022 | 1.44393
318.15 K, φ1 = 0.7426 | 1.44105
318.15 K, φ1 = 0.7791 | 1.43846
318.15 K, φ1 = 0.8117 | 1.4362
318.15 K, φ1 = 0.8423 | 1.43396
318.15 K, φ1 = 0.8682 | 1.43215
318.15 K, φ1 = 0.896 | 1.43012
318.15 K, φ1 = 0.92 | 1.4284
318.15 K, φ1 = 0.9421 | 1.42678
318.15 K, φ1 = 0.9794 | 1.42407
318.15 K, φ1 = 1 | 1.42257
328.15 K, φ1 = 0.1326 | 1.4779
328.15 K, φ1 = 0.2528 | 1.46957
328.15 K, φ1 = 0.339 | 1.46397
328.15 K, φ1 = 0.4208 | 1.45836
328.15 K, φ1 = 0.4916 | 1.45349
328.15 K, φ1 = 0.5567 | 1.44897
328.15 K, φ1 = 0.6035 | 1.44567
328.15 K, φ1 = 0.6578 | 1.44199
328.15 K, φ1 = 0.7023 | 1.43887
328.15 K, φ1 = 0.7427 | 1.43597
328.15 K, φ1 = 0.7792 | 1.43343
328.15 K, φ1 = 0.8118 | 1.43123
328.15 K, φ1 = 0.8423 | 1.42902
328.15 K, φ1 = 0.8683 | 1.42718
328.15 K, φ1 = 0.896 | 1.42526
328.15 K, φ1 = 0.92 | 1.42355
328.15 K, φ1 = 0.9422 | 1.42195
328.15 K, φ1 = 0.9794 | 1.41933
328.15 K, φ1 = 1 | 1.41785
